From patent publication US20210069269A1, “METHOD FOR ALLEVIATING TOBACCO OR NICOTINE WITHDRAWAL SYMPTOMS” (DANSTAR FERMENT AG, priority 2018, published 2021)

Test system: C. elegans wild type strain N2
Test: C. elegans behavioral toxicity (thrashing/swimming) assay after 24 hours exposure to nicotine or tobacco extract with or without probiotic bacteria
Details: control worms with no bacteria, FIG. 1
Protocol: Experiments were carried out with the wild type strain N2 of C. elegans. Worms were synchronized by isolating eggs from gravid adults, collecting the eggs in M9 buffer, hatching the eggs overnight in NGM plates and sterilely isolating L1-stage worms with M9 buffer. The L1-stage worms were transferred to NGM (Nematode Growth Medium) plates inoculated with Escherichia coli strain OP50 and incubated for four days at 15° C. to reach adulthood.
Similarly, a natural tobacco extract (ABT #6079, Advanced Biotech) was diluted in M9 buffer to a final concentration of 6.2 mM.
Adult worms were washed in M9 buffer and 250 μl of worm suspension was transferred to 24-well culture plates with or without nicotine (250 μl if present) or tobacco extract (250 μl if present) and with or without probiotic suspension (500 μl if present). The probiotic suspension was added first to the wells followed by the nicotine or the tobacco extract. At least 40 worms were present per well. The plates were incubated at 20° C. for 24 hours. After incubation period, worm suspension in each well was washed three times in M9 buffer (centrifugation of four minutes at 1000 rpm). The worms were transferred in new 24-well culture plates containing 1 ml of agar 1% in each well. The worms were allowed to equilibrate for 45 minutes, and then the thrashing (swimming) was recorded using a Leica EC3 camera. […]

## CN1CCCC1c1cccnc1.O.O.O=C(O)C(O)C(O)C(=O)O.O=C(O)C(O)C(O)C(=O)O (stereo not shown) [nicotine, Nicotine ditartrate dihydrate]
  behavioral toxicity of the challenge agent to worms without bacteria: induced a reversible paralysis
